Results reported in patent publication US20230150951A1, “2,5- OR 2,6-DISUBSTITUTED HYDROQUINONE DERIVATIVES WITH AT LEAST ONE CARBOXY, SULFO OR AMIDO GROUP USEFUL AS MEDICAMENTS” (OM PHARMA SA, priority 2020, published 2023).

Columns and labels:
Type in all cases: cell-based
[1] = biological target: T1, FGF-1 (Homo sapiens, UniProt P05230); test: FGF-1 induced sprouting of HUVEC, spheroid-based cellular angiogenesis assay; conditions: FGF-1 25 ng/mL preincubated with compound, 24 h
T1 construct: purchased Peprotech 100-17A
Procedure, shortened: (§1)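 Compound (final 100 down to 1.56×10^−6 M) was mixed with growth factor (final 25 ng/mL) for 30 min at 37°C, then added onto collagen-embedded 400-cell HUVEC spheroids.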

[2] = biological target: T2, FGF-2 (Homo sapiens, UniProt P09038); test: FGF-2 induced sprouting of HUVEC, spheroid-based cellular angiogenesis assay; conditions: FGF-2 25 ng/mL preincubated with compound, 24 h
T2 construct: purchased Peprotech 100-18C
Procedure, shortened: as §1

[3] = biological target: T3, VEGF-A (Homo sapiens, UniProt P15692); test: VEGF-A induced sprouting of HUVEC, spheroid-based cellular angiogenesis assay; conditions: VEGF-A 25 ng/mL preincubated with compound, 24 h, read-out: VEGF-A1 IC50
T3 construct: purchased ProQinase GmbH
T3 sequence (P15692 27-191 isoform P15692-4): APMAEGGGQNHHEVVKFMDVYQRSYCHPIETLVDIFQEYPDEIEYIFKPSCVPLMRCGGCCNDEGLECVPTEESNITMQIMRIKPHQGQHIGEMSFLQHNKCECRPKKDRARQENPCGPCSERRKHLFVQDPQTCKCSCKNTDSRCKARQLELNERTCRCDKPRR
Protocol: Aim of this in vitro method is to assess compounds effects on FGF-2, FGF-1, or VEGF-A induced sprouting of human umbilical vein endothelial cells (HUVEC) in the spheroid-based cellular angiogenesis assay. Before adding the growth factors to the cells, they were preincubated with the compound. Sunitinib was tested as a control (without preincubation).
IC50 values determined for the tested compounds are expressed in microM [μM] and the values for the inhibition of FGF-1, FGF2 and VEGF-A induced growth (sprouting) are listed after each compound in the examples after chemical characterization.
Sprouting test was performed on the compounds dissolved in DMSO to reach 100-fold concentrated stock solutions and dissolved in culture media. Sunitinib as reference compound was provided by ProQinase GmbH. Growth factors were purchased from rhFGF-basic (FGF-2), Peprotech, New Jersey, USA, #100-18C, Lot #0415571; rhFGF-acidic (FGF-1), Peprotech, New Jersey, USA, #100-17A, Lot #031207; hVEGF-A165 (ProQinase GmbH, Freiburg, Germany; 05.02.2010) were used for stimulation of HUVEC cells growth.
Test system: Endothelial cells from human umbilical vein (HUVEC) from pooled donors were stored frozen with 70% medium, 20% FCS, 10% DMSO at about 1×10^6 cells/ampoule. HUVEC cells, primary human umbilical vein endothelial cells (PromoCell, Heidelberg, Germany), were used after passage 3 to 4. Morphology of the cells are adherent, cobblestone-like growing as monolayer and were cultured in endothelial cell growth and basal medium (ECGM/ECBM, PromoCell). The subculture was split 1:3; every 3-5 days, seed out at ca. 1×10^4 cells/cm^2 and incubated at 37° C. with 5% CO2 with a doubling time 24-48 hours
Dilution of test compounds: 100× concentrated solutions (concerning to the final assay concentrations) of each test compound were prepared with the appropriate solvent (in DMSO or in water). These 100×compound solutions were further diluted in endothelial cell growth and basal medium (ECBM) 1:7.5 to get a 13.33× concentrated solution. 75 μl of the 13.33×solution was subsequently mixed with 25 μl of 40× concentrated stimulus (solved in ECBM), resulting in a 10×concentrated stimulus/compound mixture. This mixture (100 μl) was incubated for 30 min at 37° C. and then added to 900 μl gel, containing the HUVEC spheroids (resulting in the final assay concentration).
Test method: the experiments were pursued in modification of the originally published protocol (Korff and Augustin: J Cell Sci 112: 3249-58, 1999). In brief, spheroids were prepared as described (Korff and Augustin: J Cell Biol 143: 1341-52, 1998) by pipetting 400 HUVEC in a hanging drop on plastic dishes to allow overnight spheroid aggregation. 50 HUVEC spheroids were then seeded in 0.9 ml of a collagen gel and pipetted into individual wells of a 24 well plate to allow polymerization. The test compounds were preincubated with the growth factors (FGF-1, FGF-2 or VEGF-A final concentration 25 ng/mL) in a 10-fold concentrated solution and subsequently, 100 μl of this solution was added on top of the polymerized gel. All compounds were diluted in solvent (DMSO or water) as 100×stocks first (which means 100×stocks of each final assay concentration were prepared in solvent). Subsequently, these stocks were further diluted in medium (resulting in the 13.33×stocks of each final assay concentration) with final concentrations tested: 100, 50, 25, 12.5, 6.25, 3.13 and 1.56×10^−6 M). Plates were incubated at 37° C. for 24 hours and fixed by adding 4% PFA (Roth, Karlsruhe, Germany).
Quantification of growth factor inhibition: sprouting intensity of HUVEC spheroids treated with the growth factor and the inhibitors were quantitated by an image analysis system determining the cumulative sprout length per spheroid (CSL).

[4] = biological target: T4, VEGFR-2 (Homo sapiens, UniProt P35968); test: VEGF-165 induced phosphorylation of VEGF-Receptor on HUVEC; conditions: HUVEC preincubated 60 min, VEGF165 25 ng/mL 2 min; read-out: VEGFR-Phosphorylation inhibition IC50
T4 construct: endogenous in cells; host or cells: primary HUVEC

[5] = system: Human neutrophils; test: Inhibition of ROS production in human neutrophils (isoluminol chemiluminescence); conditions: Homo sapiens, Neutrophil, fMLP+TNF-α stimulated PMN
Procedure, shortened: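 Extracellular ROS measured as isoluminol-amplified chemiluminescence following 1 μM fMLP activation on fibrinogen-coated plates, readings every 25 sec over 250 sec minus HBSS/isoluminol background. Beforehand, cells were treated with compounds at 0.1, 0.3, 1, 3 or 10 μM (30 min, 37° C) and TNF-α (20 ng/ml, 10 min); duplicate or triplicate.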

[6] = system: Human neutrophils; test: Neutrophil adhesion under static conditions; conditions: fMLP-stimulated adhesion to fibrinogen; method: 40 μM and 80 μM, concentration of the value not stated
Procedure, shortened: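 Donor buffy-coat neutrophils (3×10^6/ml, PBS with Ca/Mg, 10% FCS, pH 7.2) preincubated 30 min at 37° C with 40 μM or 80 μM compound, then stimulated 1 min at 37° C with 1 nM fMLP on fibrinogen-coated glass. Adherent cells fixed and counted by computer; mean ± SD, unpaired t-test.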

T1 sequence (P05230 whole entry): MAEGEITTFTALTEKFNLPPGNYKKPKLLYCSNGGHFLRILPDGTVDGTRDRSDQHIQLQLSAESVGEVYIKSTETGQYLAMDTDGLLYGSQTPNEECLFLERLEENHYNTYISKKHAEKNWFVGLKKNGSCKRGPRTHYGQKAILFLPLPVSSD
T4 sequence (P35968 20-1356): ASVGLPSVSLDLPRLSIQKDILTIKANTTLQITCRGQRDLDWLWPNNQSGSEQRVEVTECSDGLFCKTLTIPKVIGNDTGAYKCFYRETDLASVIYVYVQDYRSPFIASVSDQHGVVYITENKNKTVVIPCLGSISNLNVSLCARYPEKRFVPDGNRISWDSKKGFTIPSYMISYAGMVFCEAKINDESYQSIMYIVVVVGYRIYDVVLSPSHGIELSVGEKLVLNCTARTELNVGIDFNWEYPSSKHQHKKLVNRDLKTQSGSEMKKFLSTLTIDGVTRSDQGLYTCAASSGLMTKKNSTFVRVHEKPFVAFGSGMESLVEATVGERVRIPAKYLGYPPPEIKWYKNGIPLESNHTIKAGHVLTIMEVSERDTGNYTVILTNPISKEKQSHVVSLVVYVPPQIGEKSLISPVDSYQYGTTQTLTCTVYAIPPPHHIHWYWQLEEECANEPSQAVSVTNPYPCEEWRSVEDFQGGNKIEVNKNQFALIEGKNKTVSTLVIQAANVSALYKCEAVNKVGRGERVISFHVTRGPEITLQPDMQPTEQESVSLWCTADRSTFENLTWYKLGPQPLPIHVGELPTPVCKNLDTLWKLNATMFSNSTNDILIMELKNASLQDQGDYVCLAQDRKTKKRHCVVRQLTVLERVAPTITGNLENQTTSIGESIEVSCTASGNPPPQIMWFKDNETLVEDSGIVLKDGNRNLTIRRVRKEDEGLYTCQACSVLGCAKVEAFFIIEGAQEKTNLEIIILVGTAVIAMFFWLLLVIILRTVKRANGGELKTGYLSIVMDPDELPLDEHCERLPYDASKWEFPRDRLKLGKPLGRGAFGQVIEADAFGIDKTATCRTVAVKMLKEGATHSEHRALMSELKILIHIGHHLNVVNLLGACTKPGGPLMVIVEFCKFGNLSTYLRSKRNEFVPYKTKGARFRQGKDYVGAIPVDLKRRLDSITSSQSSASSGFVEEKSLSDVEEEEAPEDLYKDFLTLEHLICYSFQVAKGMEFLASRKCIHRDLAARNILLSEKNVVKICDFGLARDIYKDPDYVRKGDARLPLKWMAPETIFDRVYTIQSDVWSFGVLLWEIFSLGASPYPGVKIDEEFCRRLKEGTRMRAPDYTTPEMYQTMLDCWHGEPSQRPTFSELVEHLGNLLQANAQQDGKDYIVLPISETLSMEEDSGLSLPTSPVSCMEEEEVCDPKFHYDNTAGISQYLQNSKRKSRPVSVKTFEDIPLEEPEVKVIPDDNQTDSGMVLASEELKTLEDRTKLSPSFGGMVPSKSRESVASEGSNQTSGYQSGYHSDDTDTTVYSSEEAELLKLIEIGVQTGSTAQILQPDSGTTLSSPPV
T2 sequence (P09038 134-288): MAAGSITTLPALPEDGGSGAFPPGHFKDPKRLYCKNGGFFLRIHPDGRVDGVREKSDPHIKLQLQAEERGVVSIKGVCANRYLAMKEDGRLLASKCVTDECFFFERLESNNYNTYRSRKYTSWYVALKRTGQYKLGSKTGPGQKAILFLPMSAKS

| SMILES | IC50 [1] [µM] | IC50 [2] [µM] | IC50 [3] [µM] | IC50 [4] [µM] | IC50 [5] [µM] | inhibition at 0.3 µM [5] [%] | Neutrophil adhesion inhibition [6] [%] |
| --- | --- | --- | --- | --- | --- | --- | --- |
| O=C(O)c1cc(O)c(CSCc2cc(O)c(C(=O)O)cc2O)cc1O [IIIc-058a, 4-((2,5-Dihydroxy-4-carboxyphenyl)methylthiomethyl)-2,5-dihydroxybenzoic acid] | 12 | 12 | 124 | 0.29 | 1.17 | 61.2 | 23 |
| O=C(O)c1cc(O)cc(C(=O)Nc2c(C(=O)O)cccc2C(=O)O)c1O [IIa-013a, 2-(3-carboxy-2,5-dihydroxybenzamido)isophthalic acid] | 137 | 12 | 34 | ≥ 100 | 2.54 | 57.7 | 15.75 |
| O=C(O)c1cc(O)cc(C(=O)NCc2ccc(O)c(O)c2)c1O [IIa-035a, 3-(3,4-Dihydroxyphenylmethylaminocarbonyl)-2,5-dihydroxybenzoic acid] | 16 | 61 | 45 | 0.52 | 1 | 77 | 36.67 |
| CCOC(=O)c1cc(O)c(C(=O)Nc2ccccc2C(=O)OCC)cc1O [Ia-001a-E2, ethyl 4-(2-(ethoxycarbonyl)phenylaminocarbonyl)-2,5-dihydroxybenzoate] | 9.2 | ≥ 200 | 123 | 1.25 | 2.58 | 51.5 | 50.5 |
| CCOC(=O)c1cc(O)c(C(=O)Nc2ccccc2-c2nnn[nH]2)cc1O [Ia-001a-Tz-E1, ethyl 4-(2-(1H-tetrazol-5-yl)phenylaminocarbonyl)-2,5-dihydroxybenzoate] | ≥ 200 | ≥ 200 | ≥ 200 | 3.8 |  | 76 | 98.88 |
| O=C(O)c1cccc(NC(=O)c2cc(O)c(C(=O)O)cc2O)c1 [Ia-002a, 4-(3-carboxyphenylaminocarbonyl)-2,5-dihydroxybenzoic acid] | 20 | 59 | 71 | 5.7 | 0.312 | 42.1 | 27.92 |
| O=C(O)c1cc(NC(=O)c2cc(O)c(C(=O)O)cc2O)ccc1O [Ia-004a, 4-(3-carboxy-4-hydroxyphenylaminocarbonyl)-2,5-dihydroxybenzoic acid] | 32 | 15 | 28 | 7.7 |  | 64.6 | 28.38 |
| O=C(O)c1cc(O)c(C(=O)Nc2cccc(C(=O)O)c2C(=O)O)cc1O [Ia-011a, 3-(4-carboxy-2,5-dihydroxybenzamido)phthalic acid] | 35 | 110 | ≥ 200 | ≥ 100 |  | 57.7 | 42.32 |
| COC(=O)c1cc(NC(=O)c2cc(O)c(C(=O)Nc3ccccc3-c3nnn[nH]3)cc2O)ccc1O [Ic-001a-Tz/004a-E1, methyl 5-(4-(2-(1H-tetrazol-5-yl)phenylaminocarbonyl)-2,5-dihydroxybenzamido)-2-hydroxybenzoate] | 104 |  | 35 | 0.1 |  | 74 | 97.56 |
| O=C(Nc1ccc(O)cc1C(=O)O)c1cc(O)c(C(=O)Nc2ccc(O)cc2C(=O)O)cc1O [Ic-009a, 2-(2,5-dihydroxy-4-(4-hydroxy-2-carboxyphenylaminocarbonyl)benzamido)-5-hydroxy benzoic acid] | 32 | 202 | 208 |  |  | 72.8 | 72.21 |

Continued, in another order:

| IC50 [1] [µM] | IC50 [2] [µM] | IC50 [3] [µM] | IC50 [4] [µM] | IC50 [5] [µM] | SMILES | inhibition at 0.3 µM [5] [%] | Neutrophil adhesion inhibition [6] [%] |
| --- | --- | --- | --- | --- | --- | --- | --- |
| 16 | 114 | 202 | 0.89 |  | O=C(O)Cc1cc(O)c(C(=O)Nc2cc(C(=O)O)cc(C(=O)O)c2)cc1O [IIIa-015a, 5-(4-(carboxymethyl)-2,5-dihydroxybenzamido)isophthalic acid] | 78.8 | 12.13 |
| 40 | 61 | 91 | 17.6 |  | O=C(O)c1ccc(NC(=O)c2cc(O)cc(C(=O)O)c2O)cc1C(=O)O [IIa-014a, 4-(3-carboxy-2,5-dihydroxybenzamido)phthalic acid] | 73.9 | 21.5 |
| 22 | 5.7 | 86 | ≥ 100 |  | O=C(O)Cc1ccccc1NC(=O)c1cc(O)cc(C(=O)O)c1O [IIa-034a, 3-(2-(carboxymethyl)phenylaminocarbonyl)-2,5-dihydroxybenzoic acid] | 69.2 | 26.58 |
| 78 | 94 | ≥ 200 | 2.7 | 2.64 | COC(=O)c1cc(O)cc(CS(=O)(=O)Cc2cc(O)cc(C(=O)OC)c2O)c1O [IVc-059a-E2] | 45.7 | 50.5 |
| 10 | 53 | 57 | ≥ 100 | 1.86 | O=C(O)c1cc(O)c(C(=O)Nc2cccc(-c3nnn[nH]3)c2)cc1O [Ia-002a-Tz, 4-(3-(1H-tetrazol-5-yl)phenyl-aminocarbonyl)-2,5-dihydroxybenzoic acid] | 66.6 | 38.5 |
| 89 |  | ≥ 100 | 11.8 | 1.2 | O=C(O)c1cc(O)c(C(=O)Nc2ccc(O)cc2C(=O)O)cc1O [Ia-006a, 4-(2-carboxy-4-hydroxyphenylaminocarbonyl)-2,5-dihydroxybenzoic acid] | 60.6 | 25.33 |
